IC50 and EC50 data for 20 compounds are collected here from patent publication US11584747B2, “Substituted pyridopyrimidinonyl compounds useful as T cell activators” (BRISTOL-MYERS SQUIBB COMPANY, priority 2019, dated 2023).

Experiment [1] has as its target human DGKα (Homo sapiens (Human), UniProt P23743). As to the kind of experiment: DGKα ADPGLO assay (detergent/lipid micelle substrate). It counts as biochemical. On the procedure: DGK Alpha ADPGLO (Truncated) IC50 (uM)
The detergent/lipid micelle was prepared by combining 15 g phosphatidylserine (Avanti 840035P) and 1 g diacylglycerol (8008110) and dissolving into 150 mL chloroform in a 2 L round bottom flask. Chloroform was removed under high vacuum by rotary evaporation. […] The lipid/detergent solution was split into 5 mL aliquots and stored at −80° C.

Experiment [2] deals with human venous whole blood (IFN-γ). As to the kind of experiment: Human whole blood IFN-γ assay. The class given is cell-based. On the procedure: Human venous whole blood (22.5 μL per well), obtained from healthy donors, was pre-treated with compounds for one hour at 37° C. in a humidified 95% air/5% CO2 incubator. The blood was stimulated with 2.5 μL anti-human CD3 and anti-CD28 mAb at a final concentration of 1 μg/mL each for 24 hours at 37° C. IFN-γ in the supernatants was measured using AlphLISA kit (Cat #AL217).

Experiment [3] deals with human DGKζ (Homo sapiens (Human), UniProt Q13574). The experiment can be described thus: DGKζ LIPGLO assay (extruded liposome substrate, ADP-Glo luminescence). The class given is biochemical.
[4] abbreviates: truncated DGK alpha, read-out: DGK alpha ADPGLO (Truncated) IC50.
Where [5] appears, read: whole blood, normalized to 3 μM reference compound as 100% activation, read-out: IFN-γ Whole Blood Normalized EC50.
[6] abbreviates: liposome assay, read-out: DGK zeta LIPGLO IC50.
Where [7] appears, read: Homo sapiens, whole blood, normalized to 3 μM reference compound as 100% activation, read-out: IFN-γ Whole Blood Normalized EC50.
Where [8] appears, read: ADPGLO assay, read-out: DGK alpha ADPGLO IC50.
[9] abbreviates: human whole blood, anti-CD3 plus anti-CD28 stimulation, 24 hours, read-out: IFN-γ Whole Blood EC50.
[10] abbreviates: liposome (LIPGLO) assay, read-out: DGK zeta (liposome assay) IC50.

Like-named read-outs stand apart in the source and are kept apart here.

Chain of human DGKα (P23743 whole entry, looked up, the tested form may be a part): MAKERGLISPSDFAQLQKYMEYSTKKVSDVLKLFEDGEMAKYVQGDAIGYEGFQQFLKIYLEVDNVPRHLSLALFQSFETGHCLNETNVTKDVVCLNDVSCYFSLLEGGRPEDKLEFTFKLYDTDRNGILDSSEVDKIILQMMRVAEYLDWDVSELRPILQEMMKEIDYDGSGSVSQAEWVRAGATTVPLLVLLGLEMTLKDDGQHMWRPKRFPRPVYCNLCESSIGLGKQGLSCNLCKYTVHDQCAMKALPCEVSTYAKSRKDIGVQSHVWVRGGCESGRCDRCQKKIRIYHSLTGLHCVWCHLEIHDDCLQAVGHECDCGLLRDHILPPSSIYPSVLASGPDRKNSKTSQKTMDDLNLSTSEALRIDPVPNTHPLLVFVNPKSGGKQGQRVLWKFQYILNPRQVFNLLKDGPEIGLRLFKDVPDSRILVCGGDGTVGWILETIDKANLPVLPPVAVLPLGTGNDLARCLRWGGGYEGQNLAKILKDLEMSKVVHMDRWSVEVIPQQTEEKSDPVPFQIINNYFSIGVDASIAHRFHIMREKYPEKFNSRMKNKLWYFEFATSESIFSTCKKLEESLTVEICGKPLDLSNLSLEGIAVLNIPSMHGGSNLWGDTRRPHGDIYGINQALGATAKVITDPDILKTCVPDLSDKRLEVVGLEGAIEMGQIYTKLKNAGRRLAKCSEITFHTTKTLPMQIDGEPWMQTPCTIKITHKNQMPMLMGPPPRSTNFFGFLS
Chain of human DGKζ (Q13574 other isoform, or with tags, fused parts or gaps): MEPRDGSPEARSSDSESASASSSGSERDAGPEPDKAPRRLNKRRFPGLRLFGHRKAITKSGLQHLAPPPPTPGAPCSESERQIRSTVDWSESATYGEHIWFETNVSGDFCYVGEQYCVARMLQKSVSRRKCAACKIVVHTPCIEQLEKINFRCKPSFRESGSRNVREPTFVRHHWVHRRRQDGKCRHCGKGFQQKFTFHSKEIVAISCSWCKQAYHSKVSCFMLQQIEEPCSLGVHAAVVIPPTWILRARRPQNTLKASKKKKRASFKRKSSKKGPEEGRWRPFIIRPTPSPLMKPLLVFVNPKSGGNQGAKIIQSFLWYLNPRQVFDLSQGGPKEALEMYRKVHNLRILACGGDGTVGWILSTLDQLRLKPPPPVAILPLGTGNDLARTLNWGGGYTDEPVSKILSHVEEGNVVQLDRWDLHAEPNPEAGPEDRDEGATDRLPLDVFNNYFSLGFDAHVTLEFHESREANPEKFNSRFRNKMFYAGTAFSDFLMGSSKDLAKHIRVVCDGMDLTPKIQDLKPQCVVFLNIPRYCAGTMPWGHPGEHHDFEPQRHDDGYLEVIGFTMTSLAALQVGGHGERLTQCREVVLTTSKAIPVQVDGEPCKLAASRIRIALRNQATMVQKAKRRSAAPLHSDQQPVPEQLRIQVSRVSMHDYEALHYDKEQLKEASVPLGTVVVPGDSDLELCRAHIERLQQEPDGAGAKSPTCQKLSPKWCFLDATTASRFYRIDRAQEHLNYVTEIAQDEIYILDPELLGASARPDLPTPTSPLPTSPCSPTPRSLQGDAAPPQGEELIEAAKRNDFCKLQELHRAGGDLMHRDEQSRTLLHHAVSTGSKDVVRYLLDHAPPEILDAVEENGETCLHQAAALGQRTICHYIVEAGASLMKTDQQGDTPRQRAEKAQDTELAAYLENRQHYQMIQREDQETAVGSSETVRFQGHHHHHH

For `[2H]C([2H])([2H])Oc1ccc(C(CC)N2C[C@H](CC)N(c3nc(=O)n(C)c4ccc(C#N)nc34)C[C@H]2CC)cc1` (single isomer, unassigned) [Example 209], the results for the IC50 in experiment [1] (setting [4]) and in experiment [3] (setting [6]) were 91 nM and 1030 nM, respectively. Besides, in experiment [2] (setting [5]), the EC50 was found to be 1280 nM.

Consider `CCC(c1ccc(C(F)(F)F)nc1)N1C[C@H](CC)N(c2nc(=O)n(C)c3ccc(C#N)nc23)C[C@H]1CC` (stereo partly drawn) [Example 225, 4-((2S,5R)-2,5-diethyl-4-(1-(6-(trifluoromethyl)pyridin-3-yl)propyl)piperazin-1-yl)-1-methyl-2-oxo-1,2-dihydropyrido[3,2-d]pyrimidine-6-carbonitrile], for which the IC50 in experiment [1] (setting [4]) amounted to 460 nM; in experiment [3] (setting [6]) it was 4130 nM. For the same compound, the concentration giving a half-maximal response (EC50) in experiment [2] (setting [5]) worked out at 610 nM.

Take `CCC(c1ccc(OCC2CC2)cc1F)N1C[C@H](CC)N(c2nc(=O)n(C)c3ccc(C#N)nc23)C[C@H]1CC` (stereo partly drawn) [Example 198, 4-((2S,5R)-4-(1-(4-(cyclopropylmethoxy)-2-fluorophenyl)propyl)-2,5-diethylpiperazin-1-yl)-1-methyl-2-oxo-1,2-dihydropyrido[3,2-d]pyrimidine-6-carbonitrile]: the IC50 in experiment [1] (setting [4]) came out at 37 nM; in experiment [3] (setting [6]) it was 38 nM. Besides, the concentration giving a half-maximal response (EC50) in experiment [2] (setting [5]) turned out to be 15 nM.

For `CC[C@@H]1CN(c2nc(=O)n(C)c3ccc(C#N)nc23)[C@@H](C)CN1C(c1ccc(F)cc1)c1csc(C(F)(F)F)n1` (stereo partly drawn) [Example 297, 4-((2S,5R)-5-ethyl-4-((4-fluorophenyl)(2-(trifluoromethyl)thiazol-4-yl)methyl)-2-methylpiperazin-1-yl)-1-methyl-2-oxo-1,2-dihydropyrido[3,2-d]pyrimidine-6-carbonitrile], the 50% inhibitory concentration (IC50) in experiment [1] (setting [4]) and in experiment [3] (setting [6]) was 110 nM in each case. Further, the EC50 in experiment [2] (setting [5]) stood at 53 nM.

As for `CCC(c1ccc(Cl)cc1F)N1C[C@H](CC)N(c2nc(=O)n(C)c3ccc(C#N)nc23)C[C@H]1CC` (stereo partly drawn) [Example 239, 4-((2S,5R)-4-(1-(4-chloro-2-fluorophenyl)propyl)-2,5-diethylpiperazin-1-yl)-1-methyl-2-oxo-1,2-dihydropyrido[3,2-d]pyrimidine-6-carbonitrile], the IC50 in experiment [1] (setting [4]) came out at 94 nM; in experiment [3] (setting [6]), 2230 nM. Moreover, the EC50 in experiment [2] (setting [5]) amounted to 2850 nM.

With `[2H]C([2H])([2H])Oc1ccc(C(CC)N2C[C@H](CC)N(c3nc(=O)n(C)c4ccc(C#N)nc34)C[C@H]2CC)cc1` (single isomer, unassigned) [Example 208], the values for the IC50 in experiment [1] (setting [4]) and in experiment [3] (setting [6]) were 25 nM and 78 nM, respectively. In experiment [2] (setting [5]), the EC50 is 17 nM.

Turning to `CCC(c1ccc(OC(F)F)cc1)N1C[C@H](CC)N(c2nc(=O)n(C)c3ccc(C#N)nc23)C[C@H]1CC` (stereo partly drawn) [Example 223, 4-((2S,5R)-4-(1-(4-(difluoromethoxy)phenyl)propyl)-2,5-diethylpiperazin-1-yl)-1-methyl-2-oxo-1,2-dihydropyrido[3,2-d]pyrimidine-6-carbonitrile], the results for the half-inhibitory concentration (IC50) in experiment [1] (setting [4]) and in experiment [3] (setting [6]) were 130 nM and 2080 nM, respectively. Also, in experiment [2] (setting [7]), the EC50 amounted to 900 nM.

Turning to `CC(c1ccc(CN2C[C@@H]3C[C@H]2CO3)cc1)N1C[C@H](C)N(c2nc(=O)n(C)c3ccc(C#N)nc23)C[C@H]1C` (stereo partly drawn) [Example 387, 4-((2S,5R)-4-(1-(4-(((1S,4S)-2-oxa-5-azabicyclo[2.2.1]heptan-5-yl)methyl)phenyl)ethyl)-2,5-dimethylpiperazin-1-yl)-1-methyl-2-oxo-1,2-dihydropyrido[3,2-d]pyrimidine-6-carbonitrile], the IC50 was 1930 nM in experiment [1] (setting [8]) and 6070 nM in experiment [3] (setting [10]). Further, the EC50 in experiment [2] (setting [9]) was found to be 770 nM.

For the compound `CC[C@H]1CN(C(C)c2ccc(C)nc2)[C@H](CC)CN1c1nc(=O)n(C)c2ccc(C#N)nc12` (stereo partly drawn) [Example 229, 4-((2S,5R)-2,5-diethyl-4-(1-(6-methylpyridin-3-yl)ethyl)piperazin-1-yl)-1-methyl-2-oxo-1,2-dihydropyrido[3,2-d]pyrimidine-6-carbonitrile], the half-maximal inhibitory concentration (IC50) in experiment [1] (setting [4]) was determined as 680 nM; in experiment [3] (setting [6]) it was 3560 nM. Further, the EC50 in experiment [2] (setting [5]) was found to be 1610 nM.

With `CCC(c1ccc(C(F)(F)F)nc1)N1C[C@H](CC)N(c2nc(=O)n(C)c3ccc(C#N)nc23)C[C@H]1CC` (stereo partly drawn) [Example 224, 4-((2S,5R)-2,5-diethyl-4-(1-(6-(trifluoromethyl)pyridin-3-yl)propyl)piperazin-1-yl)-1-methyl-2-oxo-1,2-dihydropyrido[3,2-d]pyrimidine-6-carbonitrile], the concentration for half-maximal inhibition (IC50) is 81 nM in experiment [1] (setting [4]) and 140 nM in experiment [3] (setting [6]). Besides, the EC50 in experiment [2] (setting [5]) stood at 120 nM.

As to `CC[C@H]1CN(C(C)c2ccc(CO)cc2)[C@H](CC)CN1c1nc(=O)n(C)c2ccc(C#N)nc12` (stereo partly drawn) [Example 271, 4-((2S,5R)-2,5-Diethyl-4-(1-(4-(hydroxymethyl)phenyl)ethyl)piperazin-1-yl)-1-methyl-2-oxo-1,2-dihydropyrido[3,2-d]pyrimidine-6-carbonitrile], the IC50 in experiment [1] (setting [4]) was 10 nM; in experiment [3] (setting [6]), 12700 nM. In experiment [2] (setting [5]), the EC50 worked out at 14400 nM.

Take `CC[C@H]1CN(C(C)c2ccc(C3CC3)nc2)[C@H](CC)CN1c1nc(=O)n(C)c2ccc(C#N)nc12` (stereo partly drawn) [Example 192, 4-((2 S,5R)-4-(1-(6-cyclopropylpyridin-3-yl)ethyl)-2,5-diethylpiperazin-1-yl)-1-methyl-2-oxo-1,2-dihydropyrido[3,2-d]pyrimidine-6-carbonitrile]: the IC50 in experiment [1] (setting [4]) came out at 61 nM; in experiment [3] (setting [6]) it was 52 nM. Further, the EC50 in experiment [2] (setting [5]) was determined as 110 nM.

As to `CC[C@@H]1CN(c2nc(=O)n(C)c3ccc(C#N)nc23)[C@@H](CC)CN1Cc1ccc(C(F)(F)F)cc1` [Example 205, 4-((2S,5R)-2,5-diethyl-4-(4-(trifluoromethyl)benzyl)piperazin-1-yl)-1-methyl-2-oxo-1,2-dihydropyrido[3,2-d] pyrimidine-6-carbonitrile], the results for the IC50 in experiment [1] (setting [4]) and in experiment [3] (setting [6]) were 61 nM and 3740 nM, respectively. For the same compound, the EC50 in experiment [2] (setting [7]) is 830 nM.

Turning to `CCC(c1ccc(OC(F)F)cc1F)N1C[C@H](CC)N(c2nc(=O)n(C)c3ccc(C#N)nc23)C[C@H]1CC` (stereo partly drawn) [Example 233, 4-((2S,5R)-4-(1-(4-(difluoromethoxy)-2-fluorophenyl)propyl)-2,5-diethylpiperazin-1-yl)-1-methyl-2-oxo-1,2-dihydropyrido[3,2-d]pyrimidine-6-carbonitrile], the IC50 in experiment [1] (setting [4]) was 170 nM; in experiment [3] (setting [6]), 950 nM. The concentration giving a half-maximal response (EC50) in experiment [2] (setting [5]) came to 2770 nM.

On to `CC[C@H]1CN(C(C)c2ccc3oc(=O)n(C)c3c2)[C@H](CC)CN1c1nc(=O)n(C)c2ccc(C#N)nc12` (stereo partly drawn) [Example 202, 4-((2S,5R)-2,5-diethyl-4-(1-(3-methyl-2-oxo-2,3-dihydrobenzo[d]oxazol-5-yl)ethyl)piperazin-1-yl)-1-methyl-2-oxo-1,2-dihydropyrido[3,2-d]pyrimidine-6-carbonitrile], for which the half-maximal inhibitory concentration (IC50) in experiment [1] (setting [4]) was 360 nM; in experiment [3] (setting [6]) it was 420 nM. In experiment [2] (setting [5]), the EC50 turned out to be 160 nM.

For the compound `CCC(c1ccc(C#N)cc1)N1C[C@H](CC)N(c2nc(=O)n(C)c3ccc(C#N)nc23)C[C@H]1CC` (stereo partly drawn) [Example 220, 4-((2S,5R)-4-(1-(4-cyanophenyl)propyl)-2,5-diethylpiperazin-1-yl)-1-methyl-2-oxo-1,2-dihydropyrido[3,2-d] pyrimidine-6-carbonitrile], the half-inhibitory concentration (IC50) in experiment [1] (setting [4]) is 110 nM; in experiment [3] (setting [6]), 46 nM. Besides, the EC50 in experiment [2] (setting [5]) turned out to be 81 nM.

In the case of `CCC(c1ccc(CN2CCOCC2)cc1)N1C[C@H](CC)N(c2nc(=O)n(C)c3ccc(C#N)nc23)C[C@H]1CC` (stereo partly drawn) [Example 268, 4-((2S,5R)-2,5-diethyl-4-(1-(4-(morpholinomethyl)phenyl)propyl)piperazin-1-yl)-1-methyl-2-oxo-1,2-dihydropyrido[3,2-d]pyrimidine-6-carbonitrile], the IC50 came to 340 nM in experiment [1] (setting [4]) and 4060 nM in experiment [3] (setting [6]). In addition, the EC50 in experiment [2] (setting [5]) amounted to 1000 nM.

In the case of `CCC(c1ccc(C2CC2)cc1)N1C[C@H](CC)N(c2nc(=O)n(C)c3ccc(C#N)nc23)C[C@H]1CC` (stereo partly drawn) [Example 201, 4-((2S,5R)-4-(1-(4-cyclopropylphenyl)propyl)-2,5-diethylpiperazin-1-yl)-1-methyl-2-oxo-1,2-dihydropyrido[3,2-d]pyrimidine-6-carbonitrile], the 50% inhibitory concentration (IC50) in experiment [1] (setting [4]) was 160 nM; in experiment [3] (setting [6]), 900 nM. The EC50 in experiment [2] (setting [7]) amounted to 230 nM.

On to `CC[C@H]1CN(C(C)c2ccc(C3CC3)nc2)[C@H](CC)CN1c1nc(=O)n(C)c2ccc(C#N)nc12` (stereo partly drawn) [Example 193, 4-((2 S,5R)-4-(1-(6-cyclopropylpyridin-3-yl)ethyl)-2,5-diethylpiperazin-1-yl)-1-methyl-2-oxo-1,2-dihydropyrido[3,2-d]pyrimidine-6-carbonitrile], for which the IC50 in experiment [1] (setting [4]) turned out to be 650 nM; in experiment [3] (setting [6]), 1770 nM. The EC50 in experiment [2] (setting [5]) worked out at 1150 nM.

Take `CCC(c1ccc(OCC2CC2)cc1)N1C[C@H](C)N(c2nc(=O)n(C)c3ccc(C#N)nc23)C[C@H]1CC` (stereo partly drawn) [Example 309, 4-((2S,5R)-4-(1-(4-(cyclopropylmethoxy)phenyl)propyl)-5-ethyl-2-methylpiperazin-1-yl)-1-methyl-2-oxo-1,2-dihydropyrido[3,2-d]pyrimidine-6-carbonitrile]: the concentration for half-maximal inhibition (IC50) was determined as 350 nM in experiment [1] (setting [8]) and 850 nM in experiment [3] (setting [10]). Further, in experiment [2] (setting [9]), the half-maximal effective concentration (EC50) is 1480 nM.
